Consider 14 compounds from patent US8314112B2 (Novartis AG, priority 2008, dated 2012).

As a reminder, the IC50 is the concentration needed to halve the response being measured.

This experiment addresses T1, human ALK5 (kinase domain, ALK5 T204D) (Homo sapiens, UniProt P36897, T204D).
T1 construct: The kinase domain of human ALK5 (amino acids 200-503); made in house; host or cells: insect cells (baculovirus)
T1 sequence (P36897 200-503 T204D): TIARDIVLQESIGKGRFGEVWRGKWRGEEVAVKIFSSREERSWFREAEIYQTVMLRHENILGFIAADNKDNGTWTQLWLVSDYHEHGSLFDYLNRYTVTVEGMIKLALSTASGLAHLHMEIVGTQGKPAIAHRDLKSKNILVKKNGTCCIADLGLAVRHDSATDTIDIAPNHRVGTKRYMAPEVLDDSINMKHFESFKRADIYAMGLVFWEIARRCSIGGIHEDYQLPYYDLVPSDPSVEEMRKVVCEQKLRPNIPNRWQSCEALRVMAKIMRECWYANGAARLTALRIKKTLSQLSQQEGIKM
The experiment is described as follows: ALK5 kinase assay ([33P] phosphate incorporation into casein). Format: biochemical. Conditions: casein substrate, 1 μM unlabelled ATP. The method, boiled down: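 His-tagged human ALK5 T204D kinase domain (aa 200-503, constitutively active, baculovirus/insect-cell expressed), 50 ng/well, preincubated 10 min with compound and dephosphorylated casein (200 μg/well) in Tris pH 7.4/MgCl2/MnCl2. Reaction started with 1 μM ATP plus [33P]ATP, 50 min at room temperature, EDTA-stopped; casein-bound 33P counted by scintillation after filter capture.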
Turning to `Cc1cccc(-c2nc(-c3cncc(-c4cccc(CN5CCN(C)CC5)c4)c3)c3cc[nH]c3n2)n1` [Example 10, 4-{5-[3-(4-Methyl-piperazin-1-ylmethyl)-phenyl]-pyridin-3-yl}-2-(6-methyl-pyridin-2-yl)-7H-pyrrolo[2,3-d]pyrimidine], the IC50 worked out at 50 nM. The result for `Cc1cccc(-c2cc(-c3cncc(C#CCN4CCN(C)CC4)c3)c3cc[nH]c3n2)n1` [Example 129, 4-{5-[3-(4-Methyl-piperazin-1-yl)-prop-1-ynyl]-pyridin-3-yl}-6-(6-methyl-pyridin-2-yl)-1H-pyrrolo[2,3-b]pyridine] reads 16 nM; that for `Cc1cccc(-c2nc(-c3cncc(-c4cnn(C)c4)c3)c3cc[nH]c3n2)n1` [Example 117, 4-[5-(1-Methyl-1H-pyrazol-4-yl)-pyridin-3-yl]-2-(6-methyl-pyridin-2-yl)-7H-pyrrolo[2,3-d]pyrimidine], 15 nM; that for `CSc1cncc(-c2cc(-c3cccc(C)n3)nc3[nH]ccc23)c1` [Example 105, 6-(6-Methyl-pyridin-2-yl)-4-(5-methylsulfanyl-pyridin-3-yl)-1H-pyrrolo[2,3-b]pyridine], 115 nM.

Compound `Cc1cccc(-c2nc(-c3cncc(-c4ccc(C(C)(C)N)cc4)c3)c3cc[nH]c3n2)n1` [Example 77, 1-Methyl-1-(4-{5-[2-(6-methyl-pyridin-2-yl)-7H-pyrrolo[2,3-d]pyrimidin-4-yl]-pyridin-3-yl}-phenyl)-ethylamine] had an IC50 of 9 nM. `Cc1cccc(-c2nc(-c3cncc(-c4cccc(C(C)(C)N)c4)c3)c3cc[nH]c3n2)n1` [Example 85, 1-Methyl-1-(3-{5-[2-(6-methyl-pyridin-2-yl)-7H-pyrrolo[2,3-d]pyrimidin-4-yl]-pyridin-3-yl}-phenyl)-ethylamine]: the IC50 turned out to be 99 nM. As to `COc1ccc(-c2cncc(-c3nc(-c4cccc(C)n4)nc4[nH]ccc34)c2)cc1` [Example 5, 4-[5-(4-Methoxy-phenyl)-pyridin-3-yl]-2-(6-methyl-pyridin-2-yl)-7H-pyrrolo[2,3-d]pyrimidine], the IC50 was 115 nM. `Cc1cccc(-c2nc(-c3cncc(-c4cncc(CO)c4)c3)c3cc[nH]c3n2)n1` [Example 78, {5′-[2-(6-Methyl-pyridin-2-yl)-7H-pyrrolo[2,3-d]pyrimidin-4-yl]-[3,3′]bipyridinyl-5-yl}-methanol] yielded an IC50 of 49 nM.

The compound `Cc1cccc(-c2nc(-c3cncc(-c4ccccc4C)c3)c3cc[nH]c3n2)n1` [Example 32, 2-(6-Methyl-pyridin-2-yl)-4-(5-o-tolyl-pyridin-3-yl)-7H-pyrrolo[2,3-d]pyrimidine] displayed an IC50 of 762 nM. As to `Cc1cccc(-c2cc(-c3cncc(-c4ccc(CN(C)C)cc4)c3)c3cc[nH]c3n2)n1` [Example 65, Dimethyl-(4-{5-[6-(6-methyl-pyridin-2-yl)-1H-pyrrolo[2,3-b]pyridin-4-yl]-pyridin-3-yl}-benzyl)-amine], the midpoint of inhibition, the IC50, lay at 5 nM. `Cc1cccc(-c2nc(-c3cncc(-c4cccc(CN5CCN(C(C)C)CC5)c4)c3)c3cc[nH]c3n2)n1` [Example 34, 4-{5-[3-(4-Isopropyl-piperazin-1-ylmethyl)-phenyl]-pyridin-3-yl}-2-(6-methyl-pyridin-2-yl)-7H-pyrrolo[2,3-d]pyrimidine] showed an IC50 of 51 nM. Take `Cc1cccc(-c2nc(-c3cncc(-c4ccccc4Cl)c3)c3cc[nH]c3n2)n1` [Example 33, 4-[5-(2-Chloro-phenyl)-pyridin-3-yl]-2-(6-methyl-pyridin-2-yl)-7H-pyrrolo[2,3-d]pyrimidine]: the IC50 is 90 nM. The result for `CCOc1cncc(-c2cc(-c3cccc(C)n3)nc3[nH]ccc23)c1` [Example 58, 4-(5-Ethoxy-pyridin-3-yl)-6-(6-methyl-pyridin-2-yl)-1H-pyrrolo[2,3-b]pyridine] reads 56 nM; that for `Cc1cccc(-c2nc(-c3cncc(-c4cccc(CNCC(=O)O)c4)c3)c3cc[nH]c3n2)n1` [Example 148, (3-{5-[2-(6-Methyl-pyridin-2-yl)-7H-pyrrolo[2,3-d]pyrimidin-4-yl]-pyridin-3-yl}-benzylamino)-acetic acid], 17 nM.
